Measured values taken from patent US11267809B2, “BAF complex modulating compounds and methods of using the same” (THE BOARD OF TRUSTEES OF THE LELAND STANFORD JUNIOR …, priority 2017, dated 2022).

Key:
Type in all cases: cell-based, human
[1] = tested on: ACHN renal clear cell carcinoma cell line; test: Synergy viability assay, ACHN; settings: with VE-821, PBRM1 mutant line
Description: (§1) In ARID1A-deficient tumors, ATR inhibition is thought to trigger premature mitotic entry and chromosome instability that cannot be resolved, resulting in mitotic catastrophe^27. […] We sought to assess whether generic BAF inhibition might sensitize a host of cancers to ATR inhibition. We tested the efficacy of BAFi and ATRi on nine additional human cancer cell lines including seven Breast cancer cell lines (HCC1143, HCC1954, HCC1187, MDAMB-468, MDA-MB-436, Cal-51, MCF-7) and two renal clear cell carcinoma cell lines (A-704, and ACHN). Cal-51 and MCF-7 are both considered aggressive, highly mutated breast cancer cell lines with numerous COSMIC Census gene mutations (FIG. 10). HCC1143 and MDA-MB-468 are sporadic basal-likecancers, HCC1187 is a triple-negative breast cancer, and HCC1954 and MDA-MB-436 are BRCA1 mutant breast cancers which harbor single driver mutations. To assess synergy, each cell line was treated with 5 doses of VE-821 (1.25 uM-20 uM) and 5 doses of Baficillin1 (1.25 uM-20 uM), both independently and with all possible combinations. Like HCT-116 cells, Baficillin1 sensitized MCF-7 and Cal-51 cells lines to treatment with VE-821 (FIG. 6a).
(§2) Viability assays were performed in 384-well plates. Cells were plated at 500 cells/well. […] After 5 days, cellular viability was measured using CellTitre blue, as described by the manufacturer.

[2] = tested on: HCT116 cells infected with shRNA lentivirus targeting ARID1A; test: Synergy viability assay, HCT116 with shARID1A knockdown
Description: (§3) SMARCA4, the primary target of our original screen, is present in both human BAF and PBAF complexes in cancer^12. PBAF complexes differ from BAF complexes by incorporation of specific subunits. Specifically, PBAF complexes contain ARID2 (as opposed to ARID1A/B), PHF10 (BAF45a) (as opposed to […] (BAF45d)), PBRM1, and lack the BAF-specific subunit SS18. PBAF specific subunits are also frequently mutated in cancer, specifically renal clear cell carcinomas and cholangiocarcinomas^33-36. To assess whether the lead compound is targeting BAF, PBAF complexes, or both, we constitutively knocked down ARID1A or ARID2 by lentiviral transduction of HCT116 cells and compared the BAFi/ATRi synergy to the wild-type (ARID1A+/+). […] Further, upon knockdown of ARID1A or ARID2 (FIG. 3b), the synergistic effect observed between Baficillin1 and VE-821 was ablated upon loss of ARID1A (FIG. 3e) (CIshARID1A=1.48±0.14), but not loss of shARID2 (CIshARID2=0.42±0.04) (FIG. 3c-e).
Viability assays were performed in 384-well plates. Cells were plated at 500 cells/well. Each drug was administered in 5-doses with 4 replicates per plate, and each 5×5 drug combination was administered with 8 replicates per plate, 24 hours after seeding. All error bars represent 4 or 8 technical replicates averaged over 3 independent experiments. Media containing fresh drug was replaced every 48 hours. After 5 days, cellular viability was measured using CellTitre blue, as described by the manufacturer.
Lentiviruses were produced in Lenti-X 293T cells (Clonetech) via spinfection with polyethylenimine transfection. 293T-x cells were transfected with PEI (Polysciences Inc., 24765) with lentiviral PLKO shARID1A or GIPZ shARID2 knockdown vectors, co-transfected with packaging vectors pspax2 and pMD2.G as previously described^49. PLKO shRNA construct targeting ARID1A (TRCN0000059090: shRNA-2) was obtained^50 and GIPZ Human ARID2 shRNA was purchased from Dharmacon (CloneId:V2LHS_74399). […]

[3] = tested on: HCT116 cells infected with shRNA lentivirus targeting ARID2; test: Synergy viability assay, HCT116 with shARID2 knockdown; settings: with VE-821, 5 days
Description: as §3
Viability assays were performed in 384-well plates. Cells were plated at 500 cells/well. Each drug was administered in 5-doses with 4 replicates per plate, and each 5×5 drug combination was administered with 8 replicates per plate, 24 hours after seeding. […] After 5 days, cellular viability was measured using CellTitre blue, as described by the manufacturer. […]

Cal-51 cells = test: Synergy viability assay, Cal-51; settings: with VE-821 (1.25-20 uM each)
Description: as §1, §2

MDA-MB-436 cells = test: Synergy viability assay, MDA-MB-436
Description: as §1, §2

HCT116 ARID1A(+/+) cells = test: Cell cycle analysis after double thymidine block synchronization
Method: To investigate this, we synchronized cells in the early G1/S phase and then tracked their progression through the cell cycle upon release into media containing BAFi. To assess the full cell cycle, time points were collected beginning at early G0/G1 of the second cycle following release from thymidine block. […] This is consistent with our observation that BAFi independently has minimal toxicity or effects on proliferation. […] Further, we observe that when BAFi cells are treated with VE-821, their decreased entry and slowed progression through S Phase results in an inability to successfully complete their transition through the cell cycle, akin to knockout of ARID1A. […]
For hour-by-hour analysis, cells were collected, rinsed with PBS, and vortexed while adding 1mL ice cold 70% ethanol. […] Individual cells were gated based on forward and side scatter, auto fluorescent cells were omitted, and remaining cells were then analyzed for propidium iodide levels. To determine the percent of cells in each phase, DNA content histograms histograms were analyzed using R-package “mixtools” EM algorithm for mixtures of univariate normals. The areas of each mixed normal distribution were calculated to represent the total number of cells in each phase of the cell cycle. […] ESCs were incubated with BrdU for 1 h and the percent of cells in G2/M, stained with 7-AAD and analyzed on a BD FACScan.

For `CO[C@H]1CN(C)C(=O)c2cc(NC(=O)NC(C)C)ccc2OC[C@H](C)N(Cc2ccc(-c3ccccn3)cc2)C[C@@H]1C` [Baficillin1], the “combinatorial effects of BAFi/ATRi” value [1] was “antagonism”, the “sensitivity (cell survival) compared to wild-type HCT116” value ([2]; single agent, 5 continuous days) was “slightly less sensitive” and the “combination index (CI shARID1A)” value ([2]; with VE-821, 5 days) was 1.48±0.14. The “combination index (CI shARID2)” value [3] was 0.42±0.04, the “combination index (CI Cal-51)” value (Cal-51 cells) was 0.57±0.09 and the “sensitivity to Baficillin1 independently” value (MDA-MB-436 cells; single agent, BRCA1 mutant line) was “significantly more sensitive”. For the same molecule, the “combinatorial effects of BAFi/ATRi” value (MDA-MB-436 cells; with VE-821) was “strictly additive”, the S/G2 crossover time (HCT116 ARID1A(+/+) cells; 10 uM Baficillin1 in combination with ATRi (VE-821 10 uM)) was roughly 7.5 h and the cell cycle rate (HCT116 ARID1A(+/+) cells; Baficillin1 10 uM alone) was roughly 11 hr per cycle.
